# Assays:
# COX-1 = COX-1 inhibitory activity (Table 3); assay type: biochemical; parameters: dose or concentration left out as unconfirmed
# [1] = system: bladder cancer PDX BL0293; experiment: tumor growth and survival in NSG-PDX bladder cancer mouse model BL0293; assay type: in vivo, NSG mice
# Protocol: (§1) Materials and Supplies. Bladder cancer subject-derived xenograft (PDX) models were provided by The Jackson Laboratory (JAX, Bar Harbor, Me.). […] All experiments utilized PDX models within the first five passages. […] Gemcitabine was purchased from LC Laboratories (Woburn, Mass.). […] The cell lines have not been tested and authenticated by the authors.
# (§2) PDX bladder cancer. NSG PDX studies were performed at the University of California Davis with IACUC approval. […] Gemcitabine was dissolved in 0.9% saline and administered at a dose of 150 mg/kg (IP, weekly) for 4 weeks. Animal weight and tumor size were measured twice per week. […] The percentage of tumor growth inhibition (TGI) was calculated as follows; 100%×(1−[(V^treated(final day)−V^treated(initial day))/(V^control(final day)−V^control(initial day))]), where V is tumor volume.
# (§3) Statistics. Data are presented as mean±standard error of the mean (SEM) or mean±standard deviation (SD). Group comparisons were carried out using one-way analysis of variance or Student's t test. Survival analysis was performed using the Kaplan-Meier method. A p value of less than 0.05 was considered statistically significant.
# [2] = system: bladder cancer PDX BL0269; experiment: tumor growth in NSG-PDX bladder cancer mouse model BL0269; assay type: in vivo, NSG mice
# Protocol: as §1, §2, §3
# [3] = system: bladder cancer PDX BL0808; experiment: gemcitabine combination in bladder cancer PDX BL0808; assay type: in vivo
# Protocol: PDX BL0808 was implanted into immunodeficient nod scid gamma (NSG) mice and treatment was started once tumor volume reached approximately 250 mm^3. Treatment consisted of either vehicle (5 μL/g PEG300, p.o., once daily until end of study), PTUPB (30 mg/kg in PEG300, p.o., once daily until end of study), gemcitabine (150 mg/kg in WFI, IP, once weekly, 4 times) or a combination of PTUPB with gemcitabine. Tumor volume and animal weight was monitored every other day and mice were sacrificed once tumor size reached 2 cm and tumor specific survival was recorded.
# [4] = toxicity in PDX-bearing mice (body weight, blood counts, chemistry, histology of major organs); parameters: species or system NSG mice; conditions: mouse, in vivo
# Protocol: as §2
# (§4) Blood samples from mice were collected and analyzed for complete blood count (CBC), blood urea nitrogen (BUN), aspartate aminotransferase (AST), creatinine and total bilirubin at the Veterinary Medicine Comparative Pathology Laboratory of University of California Davis. The tumor, heart, liver, spleen, lung and kidney were harvested and the tissue samples were fixed in formalin or frozen at −80° C. […] The membranes were then probed with horseradish peroxidase (HRP) tagged secondary antibodies and epitopes were detected using the ECL Plus Western Blotting Detection Reagent (GE Healthcare, Piscataway, N.J.). Cell proliferation and apoptosis assessed with Ki-67 and cleaved caspase-3 antibodies (Cell Signaling, Danvers, Mass.) using an immunohistochemistry kit per the manufacturer's instructions (BioGenex, Fremont, Calif.).
# p-ERK and p-AKT = experiment: Western blot of PDX BL0293 tumor tissue; assay type: in vivo, NSG mice; conditions: day 3; BL0293 tumors
# Protocol: as §4, with “C. Tumor sections were stained with hematoxylin and eosin (H&E) or were used for immunohistochemistry analysis. A board-certified pathologist provided detailed interpretation of tumor histomorphology and scoring of immunohistochemical staining. Some of the tumor sections were lysed and chromatographed using SDS-PAGE followed by transfer onto a PVDF membrane.” for “C.”
# [5] = system: 5637 bladder cancer cells; experiment: 72 hr cell viability assay (MTS) and combination index, 5637; assay type: cell-based, human
# Protocol: (§5) Median effect analysis to determine in vitro drug-drug interaction. […] PTUPB was dissolved in dimethyl sulfoxide (DMSO) to a final stock concentration of 10 mM. […] Cells were seeded at 2,000-3,000 cells and 100 μl of medium per well into 96-well plates (Becton Dickinson, Franklin Lakes, N.J.), and incubated overnight. Different concentrations of these two drugs were diluted in culture media and added to each well. The plates were then incubated for an additional 72 hours. The control group was dosed with 0.2% DMSO. Cell viability assays (MTS) were performed according to the manufacturer's protocol (Promega, Madison, Wis.). […] Dose-response curves were generated with GraphPad Prism 5 software (GraphPad Software Inc., La Jolla, Calif.). The combination indices (CI) were determined based on the method of Chou et al (26). CI values were calculated with CompuSyn software (http://www.combosyn.com/).
# [6] = system: J82 bladder cancer cell line; experiment: 72 hr cell viability assay (MTS), J82; assay type: cell-based, human; conditions: PTUPB 1, 2, 5, 10 μM
# Protocol: as §5
# [7] = system: TCCSUP bladder cancer cell line; experiment: 72 hr cell viability assay (MTS), TCCSUP; assay type: cell-based, human; conditions: PTUPB 1, 2, 5, 10 μM
# Protocol: as §5
# [8] = system: T24 bladder cancer cell line; experiment: 72 hr cell viability assay (MTS), T24; assay type: cell-based, human; conditions: PTUPB 1, 2, 5, 10 μM
# Protocol: as §5
# COX-2 and sEH pathways = experiment: oxylipin profile analysis (LC-MS/MS) of tumor tissue; assay type: in vivo, NSG mice
# Protocol: Oxylipin profile analysis. Lipid extraction and analysis was performed as previously reported (20). Briefly, for tumor lipid mediator extraction, ˜100 mg of tumor tissues was mixed with an antioxidant solution (0.2 mg/mL butylated hydroxytoluene and 0.2 mg/mL triphenylphosphine in methanol), the surrogate solution, and 400 μL of extract solution (0.1% acetic acid with 0.2 mg/mL butylated hydroxytoluene in methanol), and then homogenized. The resulting homogenates were kept overnight at −80° C. Next day, the homogenates were centrifuged and supernatants were collected. The pellets were washed with 0.1% butylated hydroxytoluene and 0.1% acetic acid in methanol and the supernatants were collected and combined. LC-MS/MS analysis of the extracts were carried out on an Agilent 1200SL liquid chromatographic system coupled to a 4000 QTRAP MS/MS instrument (AB Sciex) as described (29).
# [9] = BL0293, PTUPB 30 mg/kg orally once daily, cisplatin 2 mg/kg i.v.
smiles,measurement,setting,value
"NS(=O)(=O)c1ccc(-n2nc(CCCNC(=O)Nc3ccc(C(F)(F)F)cc3)cc2-c2ccccc2)cc1 [PTUPB, 4-(5-phenyl-3-{3-[3-(4-trifluoromethyl-phenyl)-ureido]-propyl}-pyrazol-1-yl)-benzenesulfonamide]",COX-1 (% inhibition),COX-1,22.7%
same,median time to a […] increase in tumor volume,[1]; [9],24.4 days
same,overall survival,[1]; [9],39.4 days
same,"anti-tumor activity, single agent",[1]; mice bearing BL0293 tumors,moderate anti-tumor activity
same,inhibition of tumor growth on addition to GC (gemcitabine and cisplatin),"[2]; PTUPB 30 mg/kg, cisplatin 2 mg/kg, gemcitabine 150 mg/kg",best inhibition of tumor growth
same,potentiation of cisplatin with respect to inhibiting tumor growth,[2]; combined with cisplatin 2 mg/kg,best and most statistically significant potentiation
same,gemcitabine chemotherapy efficacy (tumor volume),[3]; PTUPB 30 mg/kg p.o. with gemcitabine 150 mg/kg IP,extends gemcitabine chemotherapy efficacy
same,gemcitabine toxicity (animal weight),[3]; PTUPB with gemcitabine,does not increase gemcitabine toxicity
same,tumor specific survival,[3]; PTUPB with gemcitabine,increases tumor specific survival
same,body weight change,[4],slightly decreased body weight
same,histology examination of major organs,[4],no such morphology changes were observed
same,levels of p-ERK and p-AKT,p-ERK and p-AKT,did not significantly diminish
same,IC50,"[5]; Homo sapiens, single drug, 72 hr",90.4 µM
same,drug-drug interaction with cisplatin (combination index),"[5]; PTUPB 1, 2, 5 and 10 μM with cisplatin at 5 μM",modest synergistic effects
same,effect on cisplatin cytotoxicity,[6],did not increase cisplatin cytotoxicity
same,effect on cisplatin cytotoxicity,[7],did not increase cisplatin cytotoxicity
same,effect on cisplatin cytotoxicity,[8],did not increase cisplatin cytotoxicity
same,"effect on diol metabolites 10,11-DiHDPE and 15,16-DiHODE",COX-2 and sEH pathways; BL0269 tumors,no effect
same,"increase of 10,11-EpDPE, 15,16-EpODE",COX-2 and sEH pathways; BL0269 tumors,approximately two-fold increase
same,"reduction of levels of prostaglandins PGE2, PGD2, TXB2, 6-keto-PGF1α in tumor","COX-2 and sEH pathways; mouse, in vivo",~50%
same,"decrease of diol metabolite 12,13-DiHOME",COX-2 and sEH pathways; tumor,~2 fold
same,"increase of 12,13-EpOME",COX-2 and sEH pathways; tumor,approximately two-fold increase

# Source: patent publication US11426385B2, “Methods of improving cancer chemotherapy” (THE REGENTS OF THE UNIVERSITY OF CALIFORNIA, priority 2017, dated 2022)
